In patent publication US8901118B2, “Compounds and methods for kinase modulation, and indications therefor” (Plexxikon Inc., priority 2010, dated 2014):

Tests used:
[1] = target: T1, Flt-3 kinase (Homo sapiens, UniProt P36888); assay: Flt-3 kinase biochemical activity assay (AlphaScreen); settings: 100 μM ATP; read-out: Biochemical Inhibition IC50 Flt3
T1 sequence (P36888 27-993): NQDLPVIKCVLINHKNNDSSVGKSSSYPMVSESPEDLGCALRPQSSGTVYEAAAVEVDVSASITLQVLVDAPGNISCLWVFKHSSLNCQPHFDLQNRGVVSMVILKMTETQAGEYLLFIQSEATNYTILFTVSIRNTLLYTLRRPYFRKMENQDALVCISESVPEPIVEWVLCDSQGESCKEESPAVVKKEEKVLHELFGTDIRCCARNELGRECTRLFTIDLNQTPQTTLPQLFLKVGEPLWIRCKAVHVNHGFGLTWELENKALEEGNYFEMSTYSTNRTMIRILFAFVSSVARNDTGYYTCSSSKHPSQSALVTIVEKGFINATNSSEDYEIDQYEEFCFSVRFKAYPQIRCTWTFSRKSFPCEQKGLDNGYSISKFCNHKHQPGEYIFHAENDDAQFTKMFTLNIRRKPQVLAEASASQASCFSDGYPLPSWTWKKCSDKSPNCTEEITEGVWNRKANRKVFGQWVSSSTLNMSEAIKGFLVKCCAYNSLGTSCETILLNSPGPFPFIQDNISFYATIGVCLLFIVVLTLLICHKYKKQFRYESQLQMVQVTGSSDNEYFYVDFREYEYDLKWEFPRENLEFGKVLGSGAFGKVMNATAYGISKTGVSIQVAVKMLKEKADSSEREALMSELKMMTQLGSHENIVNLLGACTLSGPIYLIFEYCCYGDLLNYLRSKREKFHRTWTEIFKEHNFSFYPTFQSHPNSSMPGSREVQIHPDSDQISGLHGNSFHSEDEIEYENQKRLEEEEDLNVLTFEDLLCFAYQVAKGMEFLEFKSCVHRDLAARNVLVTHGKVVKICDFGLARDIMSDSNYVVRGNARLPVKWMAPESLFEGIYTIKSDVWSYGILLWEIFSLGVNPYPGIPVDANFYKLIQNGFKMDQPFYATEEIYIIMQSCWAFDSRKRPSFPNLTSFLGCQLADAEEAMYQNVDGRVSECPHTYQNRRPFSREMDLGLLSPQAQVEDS
Procedure: In one assay the biochemical activity IC50 values are determined with respect to inhibition of Flt-3 kinase activity, where inhibition of phosphorylation of a peptide substrate is measured as a function of compound concentration. Compounds to be tested, dissolved in DMSO (1 μL), are added to a white 384-well plate (Costar #3705). Working stocks of Flt-3 kinase (Invitrogen), biotin-(E4Y)10 substrate (Upstate Biotech, Cat#12-440), and ATP (Sigma, Cat#A-3377) are prepared in 25 mM Hepes pH 7.5, 5 mM MgCl2, 5 mM MnCl2, 1 mM DTT, and 0.01% Tween-20. All components are added to the 384-well plate for a final concentration of 1 ng/well Flt-3, 30 nM biotin-(E4Y)10 and 100 μM ATP in a volume of 20 μL. Each sample is at 5% DMSO. The plate is then incubated for 1 hour at room temperature. Just before use, working stocks of donor and acceptor beads from the AlphaScreen PY20 Detection Kit (PerkinElmer, Cat#676601M) are prepared in 25 mM Hepes pH 7.5, pH 7.4, 100 mM EDTA. 0.3% BSA. To stop the reaction, the plate is uncovered in the dark and 5 μL of Donor Beads solution (Streptavidin beads) is added to each well. The plate is incubated at room temperature for 20 minutes. Five microliters of Acceptor Beads solution (PY20 coated beads) are then added to each well. The final concentration of each bead is 10 μg/mL. The plates are incubated at room temperature for 60 minutes. Fluorescence signal is recorded on the Envision reader. Phosphorylated substrate results in binding of the PY20 antibody and association of the donor and acceptor beads such that signal correlates with kinase activity. The signal vs. compound concentration is used to determine the IC50.

[2] = target: Fms kinase (Homo sapiens, UniProt P07333); assay: Fms kinase biochemical activity assay (AlphaScreen, biotin-(E4Y)10 phosphorylation); settings: 100 μM ATP; read-out: Biochemical Inhibition IC50 Fms
Sequence of Fms kinase (P07333 20-972): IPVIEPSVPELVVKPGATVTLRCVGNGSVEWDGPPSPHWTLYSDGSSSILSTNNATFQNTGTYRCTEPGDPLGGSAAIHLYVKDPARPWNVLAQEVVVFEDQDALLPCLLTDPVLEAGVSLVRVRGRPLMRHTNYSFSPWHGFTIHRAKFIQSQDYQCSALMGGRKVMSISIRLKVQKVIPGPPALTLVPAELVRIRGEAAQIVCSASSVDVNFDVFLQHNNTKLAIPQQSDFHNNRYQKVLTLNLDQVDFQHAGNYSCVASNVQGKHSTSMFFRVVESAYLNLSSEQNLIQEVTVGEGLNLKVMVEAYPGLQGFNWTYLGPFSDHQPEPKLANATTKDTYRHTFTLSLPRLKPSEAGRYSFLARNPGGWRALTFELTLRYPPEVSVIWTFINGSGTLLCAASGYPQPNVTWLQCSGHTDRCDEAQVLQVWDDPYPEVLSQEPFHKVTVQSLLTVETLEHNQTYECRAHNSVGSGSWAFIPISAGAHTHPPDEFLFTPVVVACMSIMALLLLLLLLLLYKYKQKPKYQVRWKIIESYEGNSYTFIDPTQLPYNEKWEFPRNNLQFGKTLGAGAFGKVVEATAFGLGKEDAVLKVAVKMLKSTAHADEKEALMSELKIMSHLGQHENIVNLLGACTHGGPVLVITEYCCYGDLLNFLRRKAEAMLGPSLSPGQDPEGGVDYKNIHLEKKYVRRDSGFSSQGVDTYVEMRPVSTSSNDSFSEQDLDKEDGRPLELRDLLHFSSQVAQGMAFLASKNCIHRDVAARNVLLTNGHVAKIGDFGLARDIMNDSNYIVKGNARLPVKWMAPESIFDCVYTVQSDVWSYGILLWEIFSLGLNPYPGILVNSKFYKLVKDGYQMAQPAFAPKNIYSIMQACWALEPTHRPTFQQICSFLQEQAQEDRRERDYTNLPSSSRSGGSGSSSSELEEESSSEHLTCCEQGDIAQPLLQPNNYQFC
Procedure, shortened: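 AlphaScreen read-out (PY20 acceptor, streptavidin donor beads, EDTA stop) of biotin-(E4Y)10 phosphorylation, with IC50 taken from the concentration–signal curve. Reaction: 30 nM substrate, 100 μM ATP, 1 ng/well Fms, Hepes pH 7.5 with Mg2+/Mn2+, 5% DMSO, 20 min at 30 °C.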

Compound: FC1(F)CCC(Nc2ncc(Cc3c[nH]c4ncc(Cl)cc34)cn2)CC1 [Compound P-3004]
- IC50 [1]: > 1000 nM
- IC50 [2]: < 10 nM

Compound: COc1ccccc1Nc1ncc(Cc2c[nH]c3ncc(Cl)cc23)cn1 [Compound P-3016, [5-(5-Chloro-1H-pyrrolo[2,3-b]pyridin-3-ylmethyl)-pyrimidin-2-yl]-(2-methoxy-phenyl)-amine]
- IC50 [1]: < 100 nM
- IC50 [2]: < 100 nM

Compound: Fc1cccc(Nc2ncc(Cc3c[nH]c4ncc(Cl)cc34)cn2)c1 [Compound P-3017, [5-(5-Chloro-1H-pyrrolo[2,3-b]pyridin-3-ylmethyl)-pyrimidin-2-yl]-(3-fluoro-phenyl)-amine]
- IC50 [1]: < 100 nM
- IC50 [2]: < 100 nM

Compound: Cc1cnc2[nH]cc(Cc3cnc(Nc4ccc(C(F)(F)F)nc4)nc3)c2c1 [Compound P-3018, [5-(5-Methyl-1H-pyrrolo[2,3-b]pyridin-3-ylmethyl)-pyrimidin-2-yl]-(6-trifluoromethyl-pyridin-3-yl)-amine]
- IC50 [1]: < 10 nM
- IC50 [2]: < 10 nM

Compound: COc1ccc(Nc2ccc(Cc3c[nH]c4ncc(C)cc34)c(F)n2)cn1 [Compound P-3019, [6-fluoro-5-(5-methyl-1H-pyrrolo[2,3-b]pyridin-3-ylmethyl)-pyridin-2-yl]-(6-methoxy-pyridin-3-yl)-amine]
- IC50 [1]: < 1000 nM
- IC50 [2]: < 10 nM

Compound: COc1ccc(Nc2ncc(Cc3c[nH]c4ncc(C)cc34)cn2)cn1 [Compound P-3020, (6-Methoxy-pyridin-3-yl)-[5-(5-methyl-1H-pyrrolo[2,3-b]pyridin-3-ylmethyl)-pyrimidin-2-yl]-amine]
- IC50 [1]: < 10 nM
- IC50 [2]: < 10 nM

Compound: COc1ccc(Nc2ncc(Cc3c[nH]c4ncc(C)cc34)cn2)cc1 [Compound P-3021, (4-Methoxy-phenyl)-[5-(5-methyl-1H-pyrrolo[2,3-b]pyridin-3-ylmethyl)-pyrimidin-2-yl]-amine]
- IC50 [1]: < 10 nM
- IC50 [2]: < 10 nM

Compound: COc1cc(Nc2ncc(Cc3c[nH]c4ncc(C)cc34)cn2)ccc1F [Compound P-3022, (4-Fluoro-3-methoxy-phenyl)-[5-(5-methyl-1H-pyrrolo[2,3-b]pyridin-3-ylmethyl)-pyrimidin-2-yl]-amine]
- IC50 [1]: < 100 nM
- IC50 [2]: < 100 nM

Compound: CCCOc1ccc(Nc2ncc(Cc3c[nH]c4ncc(C)cc34)cn2)cc1 [Compound P-3024, [5-(5-Methyl-1H-pyrrolo[2,3-b]pyridin-3-ylmethyl)-pyrimidin-2-yl]-(4-propoxy-phenyl)-amine]
- IC50 [1]: < 10 nM
- IC50 [2]: < 100 nM

Compound: CCc1ccc(Nc2ncc(Cc3c[nH]c4ncc(C)cc34)cn2)cc1 [Compound P-3025, (4-Ethyl-phenyl)-[5-(5-methyl-1H-pyrrolo[2,3-b]pyridin-3-ylmethyl)-pyrimidin-2-yl]-amine]
- IC50 [1]: < 10 nM
- IC50 [2]: < 100 nM

Compound: CCOc1ccc(Nc2ncc(Cc3c[nH]c4ncc(C)cc34)cn2)cc1 [Compound P-3026, (4-Ethoxy-phenyl)-[5-(5-methyl-1H-pyrrolo[2,3-b]pyridin-3-ylmethyl)-pyrimidin-2-yl]-amine]
- IC50 [1]: < 100 nM
- IC50 [2]: < 10 nM

Compound: CCOc1ccc(Nc2ncc(Cc3c[nH]c4ncc(C)cc34)cn2)cn1 [Compound P-3027, (6-Ethoxy-pyridin-3-yl)-[5-(5-methyl-1H-pyrrolo[2,3-b]pyridin-3-ylmethyl)-pyrimidin-2-yl]-amine]
- IC50 [1]: < 10 nM
- IC50 [2]: < 10 nM

Compound: CCn1ccc(Nc2ncc(Cc3c[nH]c4ncc(C)cc34)cn2)n1 [Compound P-3035, (1-Ethyl-1H-pyrazol-3-yl)-[5-(5-methyl-1H-pyrrolo[2,3-b]pyridin-3-ylmethyl)-pyrimidin-2-yl]-amine]
- IC50 [1]: < 100 nM
- IC50 [2]: < 1000 nM

Compound: CCn1cc(Nc2ncc(Cc3c[nH]c4ncc(C)cc34)cn2)cn1 [Compound P-3036, (1-Ethyl-1H-pyrazol-4-yl)-[5-(5-methyl-1H-pyrrolo[2,3-b]pyridin-3-ylmethyl)-pyrimidin-2-yl]-amine]
- IC50 [1]: < 100 nM
- IC50 [2]: < 10 nM

Compound: CCOc1ccc(Nc2ccc(Cc3c[nH]c4ncc(C)cc34)c(F)n2)cn1 [Compound P-3039, (6-ethoxy-pyridin-3-yl)-[6-fluoro-5-(5-methyl-1H-pyrrolo[2,3-b]pyridin-3-ylmethyl)-pyridin-2-yl]-amine]
- IC50 [1]: < 100 nM
- IC50 [2]: < 10 nM

Compound: COc1ccc(Nc2ccc(C(=O)c3c[nH]c4ncc(C)cc34)c(F)n2)cn1 [Compound P-3040, [2-Fluoro-6-(6-methoxy-pyridin-3-ylamino)-pyridin-3-yl]-(5-methyl-1H-pyrrolo[2,3-b]pyridin-3-yl)-methanone]
- IC50 [1]: < 100 nM
- IC50 [2]: < 100 nM

Compound: Cc1cnc2[nH]cc(Cc3ccc(Nc4ccc(C)nc4)nc3F)c2c1 [Compound P-3041, [6-Fluoro-5-(5-methyl-1H-pyrrolo[2,3-b]pyridin-3-ylmethyl)-pyridin-2-yl]-(6-methyl-pyridin-3-yl)-amine]
- IC50 [1]: < 1000 nM
- IC50 [2]: < 10 nM

Compound: Cc1ccc(Nc2ccc(Cc3c[nH]c4ncc(Cl)cc34)c(F)n2)cn1 [Compound P-3042, [5-(5-Chloro-1H-pyrrolo[2,3-b]pyridin-3-ylmethyl)-6-fluoro-pyridin-2-yl]-(6-methyl-pyridin-3-yl)-amine]
- IC50 [1]: < 1000 nM
- IC50 [2]: < 10 nM

Compound: Cc1cnc2[nH]cc(C(=O)c3ccc(Nc4ccc(C)nc4)nc3F)c2c1 [Compound P-3043, [2-Fluoro-6-(6-methyl-pyridin-3-ylamino)-pyridin-3-yl]-(5-methyl-1H-pyrrolo[2,3-b]pyridin-3-yl)-methanone]
- IC50 [1]: < 1000 nM
- IC50 [2]: < 10 nM

Compound: Cc1ccc(Nc2ccc(C(=O)c3c[nH]c4ncc(Cl)cc34)c(F)n2)cn1 [Compound P-3044, (5-Chloro-1H-pyrrolo[2,3-b]pyridin-3-yl)-[2-fluoro-6-(6-methyl-pyridin-3-ylamino)-pyridin-3-yl]-methanone]
- IC50 [1]: < 1000 nM
- IC50 [2]: < 10 nM

Compound: CCOc1ccc(Nc2ccc(C(=O)c3c[nH]c4ncc(C)cc34)c(F)n2)cn1 [Compound P-3045, [6-(6-ethoxy-pyridin-3-ylamino)-2-fluoro-pyridin-3-yl]-(5-methyl-1H-pyrrolo[2,3-b]pyridin-3-yl)-methanone]
- IC50 [1]: < 100 nM
- IC50 [2]: < 10 nM

Compound: COc1ccc(Nc2ccc(Cc3c[nH]c4ncnc(OC)c34)c(F)n2)cn1 [Compound P-4001, [6-Fluoro-5-(4-methoxy-7H-pyrrolo[2,3-d]pyrimidin-5-ylmethyl)-pyridin-2-yl]-(6-methoxy-pyridin-3-yl)-amine]
- IC50 [1]: < 1000 nM
- IC50 [2]: < 10 nM

Compound: COc1ncnc2[nH]cc(Cc3ccc(Nc4ccc(Cl)nc4)nc3F)c12 [Compound P-4003, (6-Chloro-pyridin-3-yl)-[6-fluoro-5-(4-methoxy-7H-pyrrolo[2,3-d]pyrimidin-5-ylmethyl)-pyridin-2-yl]-amine]
- IC50 [1]: < 1000 nM
- IC50 [2]: < 100 nM

Compound: COc1ncnc2[nH]cc(Cc3ccc(Nc4ccc(C5CC5)nc4)nc3F)c12 [Compound P-4004, (6-Cyclopropyl-pyridin-3-yl)-[6-fluoro-5-(4-methoxy-7H-pyrrolo[2,3-d]pyrimidin-5-ylmethyl)-pyridin-2-yl]-amine]
- IC50 [1]: < 10 nM
- IC50 [2]: < 100 nM
